The text below walks through data of patent US10308631B2, “Selective anti-cancer compounds” (NATIONAL UNIVERSITY OF SINGAPORE, priority 2015, dated 2019).

In experiment [1] the test system is autophagosome marker LC3 (LC3 II/LC3 I) in transformed BJ cells. Put plainly: Immunoblot analysis of autophagosome marker LC3 (lysosome function), derivatives of Compound 1. The class given is cell-based. The following applies: Homo sapiens, band intensities LC3 II/LC3 I vs DMSO control, 24 h. As to the method: (§1) FIG. 4 compares the ability of Compound 1 (a131), and various derivatives thereof (referred to using their code numbers for brevity; the designated chemical compound for each code number is provided in the chemical examples section below), to inhibit autophagy and/or mitosis. BJ transformed cells were treated with 5 μM of various Compounds as shown, for 24 h. Cells were harvested and total lysates were analysed by detecting the mitotic marker phospho-histone H3 at serine 10 (pH3 (Ser10)) and the autophagosome marker LC3. Antibodies raised against β-actin were used as an internal loading control.
(§2) The ability of Compound 1 to inhibit lysosome function was examined using immunoblotting. HeLa cervical cancer cells were cultured in Dulbecco's modified Eagle's medium (DMEM) supplemented with 10% Fetal Bovine Serum (FBS, Thermo Scientific). The HeLa cells were treated with different concentrations of Compound 1 (0.625, 1.25, 2.5, 5 and 10 μM, dimethyl sulfoxide (DMSO, Kanto Kagaku)), chloroquine (CQ) (1.25, 2.5, 10, 50 and 100 μM, DMSO) or DMSO for 6 h. Then, the treated cells were harvested and lysed in 1% triton lysis buffer [25 mM Tris HCl (pH8.0), 150 mM NaCl, 1% triton-X100, 1 mM dithiothreitol (DTT), protease inhibitor mix (Complete Mini, Roche) and phosphatase inhibitor (PhosphoStop, Roche)]. The proteins in total lysates were boiled with sample buffer (60 mM Tris-HCl (pH 6.8), 25% glycerol, 2% SDS, 14.4 mM 2-mercaptoethanol, 0.1% bromophenol blue) and resolved by 14% tris-glycine sodium dodecyl sulfate polyacrylamide gel electrophoresis (SDS-PAGE) and subjected to immunoblot analysis.
(§3) Defects in lysosome function and inhibition of autophagy can be measured by accumulation of LC3-phosphatidylethanolamine conjugated non-soluble form (LC3-II), which are converted from soluble LC3-I. Thus, antibodies raised against LC3 (Cell Signaling, Cat#4108) were used to determine lysosomal function and integrity. Antibodies raised against phosphorylated histone H3 at serine 10 residue (pH3) (Cell signaling, Cat#3377) were used as the marker for mitotic dysfunction and arrest. Antibodies raised against β-actin (Millipore, Cat#MAB1501) were used as an internal loading control. The inhibitory ability of Compound 1 was also quantitatively compared to CQ.
(§4) Derivatives of Compound 1 were tested to see if they had similar dual activity, or presented only one of the activities of Compound 1. The protocol for immunoblot analysis described in Biology Example 1 was applied to the additional indicated compounds.
(§5) Activities of compounds were determined by two independent experiments. First, Compounds were classified according to the intensity of increase in each of the mitotic marker phospho-histone H3 at serine 10 (pH3 (Ser 10)) and the autophagosome marker LC3, respectively, at 1.25 μM, when compared with 1.25 μM Compound 1 (a131).
(§6) Compounds classified “++” on either “mitosis” or “inhibits lysosome” show similar increase in each of the mitotic marker phospho-histone H3 at serine 10 (pH3 (Ser10)) and the autophagosome marker LC3, respectively, at 2.5 μM, when compared with 1.25 μM Compound 1 (a131); and compounds classified “+” on either “mitosis” or “inhibits lysosome” show similar increase in each of the mitotic marker phospho-histone H3 at serine 10 (pH3 (Ser10)) and the autophagosome marker LC3, respectively, at a concentration range of 5-10 μM, when compared with 1.25 μM Compound 1 (a131).
Compounds classified “+/−” on either “mitosis” or “inhibits lysosome” show less increase in each of the mitotic marker phospho-histone H3 at serine 10 (pH3 (Ser10)) and the autophagosome marker LC3, respectively, at a concentration range of 5-10 μM, when compared with 1.25 μM Compound 1 (a131). […]
In general terms: Immunoblotting shows a protein as a band on a membrane.

Experiment [2] deals with pH3 (Ser10) and LC3 in BJ transformed cells. As to the kind of experiment: Immunoblot classification of compounds by pH3 and LC3 (FIG. 4). The class given is cell-based, human. The conditions noted are these: 5 μM, 24 h. As to the method: as §1, §4
Experiment [3] deals with non-transformed normal BJ cells. As to the kind of experiment: BrdU incorporation and FACS analysis (cell cycle arrest). The conditions noted are these: 24 h; 2.5 and 5 μM (FIG. 9A, 9C). In kind it is cell-based, human. As to the method: A: is output from a FACS analysis of isogenic-non-transformed, without (panels a-c) (WT) or with (panels d-f) shRNA-mediated knockdown of p53 (p53KD), and oncogene-transformed BJ cells (panels g-i), each treated with 0, 5 or 2.5 μM Compound 1 (a131) for 24 h. Cells were doubly stained with PI (horizontal axis) and BrdU (vertical axis). The BrdU-positive population in panels a-c are indicated as arrows. B: is a diagrammatic representation of an immunoblot analysis showing isogenic non-transformed (normal) and oncogene-transformed BJ cells (transformed) treated with Compound 1 (a131) at 0, 2.5 or 5 μM for 24 h or 48 h. Cells were harvested and total lysates were analysed by detecting p53 and p21. Antibodies raised against β-actin were used as an internal loading control. C and D are histograms showing the percentage of bromodeoxyuracil (BrdU)-positive non-transformed (normal) BJ cells. C: Cells were treated with Group 1 Compound 1 (a131) at 2.5 and 5 μM, Compound 23 (b36) at 2.5 and 5 μM, and Compound 21 (b35) at 5 μM, and Group 2 Compound 25 (a166) at 2.5 and 5 μM, for 24 h. Cells were doubly stained with propidium iodide (PI) and BrdU, and subjected to FACS analysis. The BrdU-positive population are plotted as bars. D: Cells were treated with Group 1 Compound 1 (a131), Compound 16 (b5), and Compound 17 (b9); Group 2 Compound 13 (b12), Compound 12 (b16) and Compound 25 (a166), and Group 3 Compound 3 (a159) at 5 μM for 48 h. The percentage of cells with BrdU positive population, in comparison with DMSO control vehicle, is shown with mean values±S.D. (n=3).
Isogenic non-transformed and oncogene-transformed BJ cells (cultured as in Biology Example 3) were treated with Compound 1 at final concentrations of 2.5 and 5 μM for 24 h. The treated cells were then treated with 30 μM final concentration of 5-bromo-2′-deoxyuridine (BrdU, SIGMA) for 1 h to detect DNA synthesis as a marker for cell proliferation. Subsequently, the cells were fixed in EtOH at 4° C. overnight and permeabilized with 2N HCl/0.5% Triton X-100 for 30 min. The cells were then treated with 0.1M sodium tetraborate for 2 min and stained with anti-BrdU antibody (Invitrogen, Cat#B35129) for 60 min, followed by a 30 min treatment with 20 μg/mL of propidium iodide (PI) and 10 μg/mL RNaseA.
Furthermore, the abilities of additional five (5) Compounds to arrest cells at the stage of G1/S phase of the cell cycle were evaluated. […] The abilities of these Compounds to arrest cells at the stage of G1/S phase of the cell cycle were then measured by using BrdU incorporation assay and FACS analysis. The percentage of cells with BrdU positive population in comparison with DMSO control vehicle was determined and plotted with mean values±S.D. (n=3).

For experiment [4], the system named is mitotic marker phospho-histone H3 at serine 10 (pH3 (Ser10)) in transformed BJ cells. As to the kind of experiment: Immunoblot analysis of mitotic marker pH3 (Ser10), derivatives of Compound 1. The class given is cell-based. The conditions noted are these: Homo sapiens, band intensities pH3(Ser10)/β-actin vs DMSO control, 24 h. As to the method: as §1, §2, §3, §4, §5, §6
Compounds classified “+/−” on either “mitosis” or “inhibits lysosome” show less increase in each of the mitotic marker phospho-histone H3 at serine 10 (pH3 (Ser10)) and the autophagosome marker LC3, respectively, at a concentration range of 5-10 μM, when compared with 1.25 μM Compound 1 (a131).
Next, the ability of Compound 1 and its derivatives to induce mitotic arrest in transformed BJ cells was quantified as the fold induction of band intensities [pH3(Ser10)/β-actin] in comparison with DMSO control. […]

Broadly, the fold induction is the ratio of treated to control signal. On to `N#C/C(=C\c1cccc2cnccc12)c1cn(C(=O)C2CCNCC2)c2ccccc12` [Compound 21, (Z)-3-(isoquinolin-5-yl)-2-(1-(piperidine-4-carbonyl)-1H-indol-3-yl)acrylonitrile], for which the fold induction at 5 µM in experiment [1] was found to be 7.3; in experiment [4] it was 10.1. Moreover, the “Inhibition of lysosome function and/or mitosis (FIG. 4)” value (shortened to “Inhibition”) in experiment [2] is “exhibit the dual properties of inhibiting both lysosome function and mitosis”. The BrdU-positive cell population entry in experiment [3] was “substantially decreased the population of BrdU-positive cells”.

Consider `N#C/C(=C\c1cccc2cnccc12)c1cn(C(=O)CCN)c2ccccc12` [Compound 22, (Z)-2-(1-(3-aminopropanoyl)-1H-indol-3-yl)-3-(isoquinolin-5-yl)acrylonitrile], for which the fold induction at 5 µM in experiment [1] turned out to be 4.1; in experiment [4], 2.1. In addition, in experiment [2], the “Inhibition” value was “exhibit the dual properties of inhibiting both lysosome function and mitosis”.

Regarding `N#C/C(=C\c1cccc2cnccc12)c1cn(C(=O)C2CCN(C(=O)CCCC[C@@H]3SC[C@@H]4NC(=O)N[C@@H]43)CC2)c2ccccc12` [Compound 23, (Z)-3-(isoquinolin-5-yl)-2-(1-(1-(5-((3aS,4S,6aR)-2-oxohexahydro-1H-thieno[3,4-d]imidazol-4-yl)pentanoyl)piperidine-4-carbonyl)-1H-indol-3-yl)acrylonitrile], the figures for the fold induction at 5 µM in experiment [1] and in experiment [4] were 5.7 and 18.6, respectively. Moreover, the “Inhibition” value in experiment [2] was “exhibit the dual properties of inhibiting both lysosome function and mitosis”. In experiment [3], the BrdU-positive cell population result is “substantially decreased the population of BrdU-positive cells”.

Turning to `N#C/C(=C\c1cccc2cnccc12)c1cn(C(=O)CCNC(=O)CCCC[C@@H]2SC[C@@H]3NC(=O)N[C@@H]32)c2ccccc12` [Compound 24, N-(3-(3-((Z)-1-cyano-2-(isoquinolin-5-yl)vinyl)-1H-indol-1-yl)-3-oxopropyl)-5-((3aS,4S,6aR)-2-oxohexahydro-1H-thieno[3,4-d]imidazol-4-yl)pentanamide], the fold induction at 5 µM in experiment [1] came to 3.3; in experiment [4], 3.2. Moreover, the “Inhibition” value in experiment [2] is “exhibit the dual properties of inhibiting both lysosome function and mitosis”.

For the compound `C(=C\c1c[nH]c2ccccc12)/c1cncc2cnccc12` [Compound 26, 4-((E)-2-(1H-indol-3-yl)vinyl)-2,7-naphthyridine], the fold induction at 5 µM was determined as 2.7 in experiment [1] and 1.2 in experiment [4]. Moreover, the “Inhibition” value in experiment [2] is on record as “inhibit lysosome function only”.

Take `C(=C\c1c[nH]c2ncccc12)/c1cccc2cnccc12` [Compound 27, 5-((E)-2-(1H-pyrrolo[2,3-b]pyridin-3-yl)vinyl)isoquinoline]: the results for the fold induction at 5 µM in experiment [1] and in experiment [4] were 2 and 1.2, respectively. For the same compound, the “Inhibition” value in experiment [2] was “inhibit lysosome function only”.

Turning to `COCCOCC(=O)n1cc(/C(C#N)=C/c2cccc3cnccc23)c2ccccc21` [Compound 30, (Z)-2-(1-(2-(2-methoxyethoxy)acetyl)-1H-indol-3-yl)-3-(isoquinolin-5-yl)acrylonitrile], the fold induction at 5 µM in experiment [1] stood at 4.1; in experiment [4], 12.8. In addition, in experiment [2], the “Inhibition” value is “exhibit the dual properties of inhibiting both lysosome function and mitosis”.

For the compound `N#C/C(=C\c1cccc2cnccc12)c1c[nH]c2cc(CN3CCCC3)ccc12` [Compound 31, (Z)-3-(isoquinolin-5-yl)-2-(6-((pyrrolidin-1-yl)methyl)-1H-indol-3-yl)acrylonitrile], the fold induction at 5 µM in experiment [1] was found to be 5.7; in experiment [4], 1.1. Further, the “Inhibition” value in experiment [2] is on record as “inhibit lysosome function only”.

As to `N#C/C(=C\c1cccc2cnccc12)c1c[nH]c2ccc(CN3CCCC3)cc12` [Compound 32, (Z)-3-(isoquinolin-5-yl)-2-(5-((pyrrolidin-1-yl)methyl)-1H-indol-3-yl)acrylonitrile], the fold induction at 5 µM worked out at 3.3 in experiment [1] and 1 in experiment [4]. The “Inhibition” value in experiment [2] is reported as “inhibit lysosome function only”.

`N#C/C(=C\c1cccc2cnccc12)c1c[nH]c2c(CN3CCCC3)cccc12` [Compound 33, (Z)-3-(isoquinolin-5-yl)-2-(7-((pyrrolidin-1-yl)methyl)-1H-indol-3-yl)acrylonitrile]: the fold induction at 5 µM in experiment [1] worked out at 3.7; in experiment [4], 0.8. In experiment [2], the “Inhibition” value is reported as “inhibit lysosome function only”.

For `N#C/C(=C\c1cccc2cnccc12)c1n[nH]c2ccccc12` [Compound 34, (Z)-2-(1H-indazol-3-yl)-3-(isoquinolin-5-yl)acrylonitrile], the fold induction at 5 µM in experiment [1] is 2; in experiment [4], 1.4. For the same compound, in experiment [2], the “Inhibition” value is recorded as “inhibit lysosome function only”.
